# Assay results as given in patent US8323252B2, “Method of treating skin ulcers using oxidative reductive potential water solution” (priority 2005, dated 2012).
# Where two headings read alike, the source gives them in different places.
# What was measured:
# [1] = tested on: murine polychromatic erythrocytes; conditions: for PCE/NCE ratio: cyclophosphamide 8 mg/mL, 12.5 ml/kg i.p. on day 2
# Method: The mammalian in vivo micronucleus test is used for the identification of substances which cause damage to chromosomes or the mitotic apparatus of murine polychromatic erythrocytes. This damage results in the formation of “micronuclei,” intracellular structures containing lagging chromosome fragments or isolated whole chromosomes. […] The positive control mice received a single intraperitoneal injection of cyclophosphamide (8 mg/mL, 12.5 ml/kg) on day 2. All mice were observed immediately after injection for any adverse reactions. […] On day 3, all mice were weighed and terminated.
# The femurs were excised from the terminated mice, the bone marrow was extracted, and duplicate smear preparations were performed for each mouse. The bone marrow slides for each animal were read at 40× magnification. The ratio of polychromatic erythrocytes (PCE) to normochromatic erythrocytes (NCE), an index of bone marrow toxicity, was determined for each mouse by counting a total of at least 200 erythrocytes. Then a minimum of 2000 scoreable PCE per mouse were evaluated for the incidence of micronucleated polychromatic erythrocytes. Statistical analysis of the data were done using the Mann and Whitney test (at 5% risk threshold) from a statistical software package (Statview 5.0, SAS Institute Inc., USA).
# 8-OHdG adducts in HDFs = conditions: human, 30 min, 500 μM
# Method: DNA was extracted right after the exposure (T0, white bars) or three hours after the challenge period (T3, black bars). DNA was digested and the 8-OHdG adducts were measured by ELISA kit as per the manufacturer's instructions. Values are shown (ng/mL) as mean±SD (n=3).
# primary HDF cultures = conditions: human, 1 month, 5 μM
Compound,PCE/NCE ratio ([1]; females),"number of polychromatic erythrocytes bearing micronuclei ([1]; males, ORP water solution = Microcyn 10%, 12.5 ml/kg i.p.)",PCE/NCE ratio ([1]; males),increase of 8-OHdG adducts relative to control-treated or ORP water solution-treated cells (8-OHdG adducts in HDFs),cells with increased SA-β-Gal expression (primary HDF cultures) [%]
O=P1(N(CCCl)CCCl)NCCCO1 (centres unmarked) [cyclophosphamide],0.73,11.0,0.77,–,–
"OO [HP, hydrogen peroxide]",–,–,–,about 25 fold,86
